Assay results: ChEMBL document CHEMBL4765275, “Discovery of novel tertiary amide derivatives as NEDDylation pathway activators to inhibit the tumor progression in vitro and in vivo” (Eur J Med Chem, 2020)
Active and inactive are the calls of the source. No cut-off for these calls is given here.

Key:
[1] = tested on: MGC-803; assay: Induction of apoptosis in human MGC-803 cells assessed as upregulation of Fasl expression at 50 to 150 nmol/L measured after 48 hrs by Western blot analysis; type: functional, cell-based; details: dose 50-150 nmol/L
[2] = tested on: MGC-803; assay: Induction of morphological changes in human MGC-803 cells assessed as cell rounding at 50 to 150 nmol/L measured after 48 hrs by bright field microscopic analysis; type: functional, cell-based; details: dose 50-150 nmol/L
[3] = tested on: MGC-803; assay: Induction of morphological changes in human MGC-803 cells assessed as nuclear fragmentation at 50 to 150 nmol/L measured after 48 hrs by DAPI staining based assay; type: functional, cell-based; details: dose 50-150 nmol/L
[4] = tested on: MGC-803; assay: Cell cycle arrest in human MGC-803 cells assessed as accumulation at G1 phase at 50 nmol/L measured after 48 hrs by propidium iodide staining based flow cytometry (reference value: 40.61%); type: functional
[5] = tested on: MGC-803; assay: Cell cycle arrest in human MGC-803 cells assessed as accumulation at S phase at 50 nmol/L measured after 48 hrs by propidium iodide staining based flow cytometry (reference value: 34.48%); type: functional
[6] = tested on: MGC-803; assay: Cell cycle arrest in human MGC-803 cells assessed as accumulation at G1 phase at 100 nmol/L measured after 48 hrs by propidium iodide staining based flow cytometry (reference value: 40.61%); type: functional
[7] = tested on: MGC-803; assay: Cell cycle arrest in human MGC-803 cells assessed as accumulation at G2 phase at 100 nmol/L measured after 48 hrs by propidium iodide staining based flow cytometry (reference value: 24.91%); type: functional
[8] = tested on: MGC-803; assay: Induction of apoptosis in human MGC-803 cells assessed as viable cells at 50 nmol/L measured after 48 hrs by Annexin V-FITC/propidium iodide staining based flow cytometry (reference value: 91.7%); type: functional; details: read-out: Activity
[9] = tested on: MGC-803; assay: Induction of apoptosis in human MGC-803 cells assessed as necrotic cells at 50 nmol/L measured after 48 hrs by Annexin V-FITC/propidium iodide staining based flow cytometry (reference value: 0.5%); type: functional
[10] = tested on: MGC-803; assay: Induction of apoptosis in human MGC-803 cells assessed as viable cells at 100 nmol/L measured after 48 hrs by Annexin V-FITC/propidium iodide staining based flow cytometry (reference value: 91.7%); type: functional; details: read-out: Activity
[11] = tested on: MGC-803; assay: Induction of apoptosis in human MGC-803 cells assessed as early apoptotic cells at 100 nmol/L measured after 48 hrs by Annexin V-FITC/propidium iodide staining based flow cytometry (reference value: 2.2%); type: functional
[12] = tested on: MGC-803; assay: Induction of apoptosis in human MGC-803 cells assessed as necrotic cells at 100 nmol/L measured after 48 hrs by Annexin V-FITC/propidium iodide staining based flow cytometry (reference value: 0.5%); type: functional
[13] = tested on: MGC-803; assay: Induction of apoptosis in human MGC-803 cells assessed as necrotic cells at 150 nmol/L measured after 48 hrs by Annexin V-FITC/propidium iodide staining based flow cytometry (reference value: 0.5%); type: functional
[14] = tested on: MGC-803; assay: Induction of apoptosis in human MGC-803 cells assessed as increase in activated caspase-9 expression at 50 to 150 nmol/L measured after 48 hrs by Western blot analysis; type: functional, cell-based; details: dose 50-150 nmol/L
[15] = tested on: MGC-803; assay: Induction of apoptosis in human MGC-803 cells assessed as down regulation of Bcl-xL expression at 50 to 150 nmol/L measured after 48 hrs by Western blot analysis; type: functional, cell-based; details: dose 50-150 nmol/L
[16] = tested on: MGC-803; assay: Induction of apoptosis in human MGC-803 cells assessed as down regulation of Bcl-2 expression at 50 to 150 nmol/L measured after 48 hrs by Western blot analysis; type: functional, cell-based; details: dose 50-150 nmol/L
[17] = tested on: MGC-803; assay: Induction of apoptosis in human MGC-803 cells assessed as down regulation of XIAP expression at 50 to 150 nmol/L measured after 48 hrs by Western blot analysis; type: functional, cell-based; details: dose 50-150 nmol/L
[18] = tested on: MGC-803; assay: Induction of apoptosis in human MGC-803 cells assessed as down regulation of c-IAP1 expression at 50 to 150 nmol/L measured after 48 hrs by Western blot analysis; type: functional, cell-based; details: dose 50-150 nmol/L
[19] = tested on: MGC-803; assay: Antiproliferative activity against human MGC-803 cells assessed as cell viability measured after 48 hrs in presence of NEDDylation inhibitor MLN4924 by MTT assay relative to control; type: functional
[20] = target: T1, NEDD8-activating enzyme E1 regulatory subunit (Homo sapiens) (UniProt Q13564); assay: Stabilization of NAE1 (unknown origin) at 150 nmol/L by CETSA; details: filed as activator
T1 sequence (whole entry): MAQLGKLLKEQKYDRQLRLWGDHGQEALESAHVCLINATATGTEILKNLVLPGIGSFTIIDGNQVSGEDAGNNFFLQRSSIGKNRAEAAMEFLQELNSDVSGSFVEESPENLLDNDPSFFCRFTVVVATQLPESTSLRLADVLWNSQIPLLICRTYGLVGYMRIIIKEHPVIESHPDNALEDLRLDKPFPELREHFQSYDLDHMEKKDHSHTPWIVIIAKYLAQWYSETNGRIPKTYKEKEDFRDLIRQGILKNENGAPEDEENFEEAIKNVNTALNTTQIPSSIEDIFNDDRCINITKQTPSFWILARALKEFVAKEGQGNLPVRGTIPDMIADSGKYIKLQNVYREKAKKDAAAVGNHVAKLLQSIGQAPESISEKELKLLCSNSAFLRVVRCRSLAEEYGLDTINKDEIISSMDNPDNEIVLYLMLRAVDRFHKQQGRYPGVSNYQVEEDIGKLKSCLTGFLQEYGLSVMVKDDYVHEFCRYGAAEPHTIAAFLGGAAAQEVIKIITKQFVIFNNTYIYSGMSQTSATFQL

[21] = target: T1, NEDD8-activating enzyme E1 regulatory subunit (Homo sapiens); assay: Activation of NAE1-mediated neddylation in human MGC-803 cells assessed as increase in Nedd8-CUL1 adduct formation at 50 to 150 nmol/L measured after 24 hrs by Western blot analysis; type: cell-based; details: filed as activator, dose 50-150 nmol/L
[22] = target: T1, NEDD8-activating enzyme E1 regulatory subunit (Homo sapiens); assay: Activation of NAE1-mediated neddylation in human MGC-803 cells assessed as increase in Nedd8 neddylation at 50 to 150 nmol/L measured after 24 hrs by Western blot analysis; type: cell-based; details: filed as activator, dose 50-150 nmol/L
[23] = tested on: MGC-803; assay: Induction of apoptosis in human MGC-803 cells assessed as increase in cleaved PARP expression at 150 nmol/L measured after 24 hrs in presence of NEDDylation inhibitor MLN4924 by Western blot analysis; type: functional, cell-based
[24] = tested on: MGC-803; assay: Induction of apoptosis in human MGC-803 cells assessed as down regulation of XIAP expression at 150 nmol/L measured after 24 hrs in presence of NEDDylation inhibitor MLN4924 by Western blot analysis; type: functional, cell-based
[25] = tested on: MGC-803; assay: Antitumor activity against human MGC-803 cells xenografted in mouse assessed as reduction in tumor weight at 50 mg/kg, sc measured after 28 days relative to control; type: functional; set-up: scale not given: the % may be the effect or the level left; details: time 28 day
[26] = tested on: MGC-803; assay: Antitumor activity against human MGC-803 cells xenografted in mouse assessed as reduction in tumor weight at 100 mg/kg, sc measured after 28 days relative to control; type: functional; set-up: scale not given: the % may be the effect or the level left; details: time 28 day
[27] = tested on: MGC-803; assay: Antitumor activity against human MGC-803 cells xenografted in mouse assessed as reduction in tumor weight at 150 mg/kg, sc measured after 28 days relative to control; type: functional; set-up: scale not given: the % may be the effect or the level left; details: time 28 day
[28] = tested on: MGC-803; assay: Toxicity in human MGC-803 cells xenografted mouse assessed as change in body weight at 50 to 150 mg/kg, sc measured after 28 days; type: organism-based; details: in vivo, 672 h, dose 50-150 mg/kg, time 28 day

`COc1ccc(CN(C(=O)Cc2cccs2)c2cc(OC)c(OC)c(OC)c2)cc1` was tested, and the Activity [1] was “Active”, the Activity [2] was “Active” and the Activity [3] was “Active”. The Activity [4] was 37.2%, the Activity [5] was 27.68% and the Activity [6] was 37.76%. The Activity [7] was 36.03%, the viability at 0.05 µM [8] was 87.7% and the Activity [9] was 0.6%. It also gave a viability at 0.1 µM [10] of 32%, an Activity [11] of 42.4% and an Activity [12] of 2.5%. The Activity [13] was 3.8%, the Activity [14] was “Active” and the Activity [15] was “Active”. For the same compound, the Activity [16] was “Active”, the Activity [17] was “Active” and the Activity [18] was “Active”. For the same compound, the Activity [19] was 64.2%, the Activity [20] was “Active” and the Activity [21] was “Active”. The Activity [22] was “Active”, the Activity [23] was “inactive” and the Activity [24] was “Active”. For the same compound, the Activity [25] was 36%, the Activity [26] was 42% and the Activity [27] was 46%. For the same compound, the Activity [28] was “Non-Toxic”.
